# “Also recorded” adds a separate entry of the source.
# Columns and labels:
# NFAT reporter = experiment: BW-NFAT-Luc counter screen (NFAT reporter only, no TREM2/TYROBP); format: cell-based, mouse; conditions: for stimulation of the NFAT-Luc reporter-only counter screen cell line: NFAT-Luc cells without TREM2/TYROBP, sphingomyelin (120 μg/mL in counter screen)
# Description: (§1) Cell-based reporter assays were developed for identifying TREM2 agonists. A mouse T-lymphocyte cell line, BW5147.3, stably co-expressing full-length TREM2, full-length TYROBP, and a reporter (e.g., firefly luciferase) driven by NFAT-response elements, was established (FIG. 2). The parental BW5147.3 cells have no detectable expression of TREM2 or TYROBP (FIG. 4B) and can be used as a counter screen cell-line to identify false positive compounds that stimulate reporter expression independent of TREM2 and TYROBP. BW5147.3 lymphocytes play a central role in the immune system and have high viability (99-100%) in culture.
# A counter screen cell line only expressing the Cignal Lenti NFAT Reporter (luc) was also created in parallel to the reporter (BW-NFAT-Luc cell line). The BW-NFAT-Luc cell line has the same MOI as the TREM2/TYROBP-NFAT-Luc cell line (MOI=20) but without expression of TREM2 or TYROBP.
# Transmembrane signaling via TREM2 is accomplished through an ITAM-bearing trans-membrane adaptor protein, TYROBP or DAP12. TREM2 activation leads to the induction of transcription factor NFAT. Activation of TREM2 by ligands leads to the phosphorylation of TYROBP, the activation of the reporter, and quantitative production of luciferase. Previous studies using TREM2/TYROBP/NFAT reporter cell-lines have confirmed the stimulation of NFAT transcription following TREM2 activation. Compounds that directly stimulate NFAT signaling (stimulate luciferase activity in the BW-NFAT-Luc cell line) are eliminated as false positive. Thus, the counter screen with BW-NFAT-Luc cell line eliminates the false positive hits and confirms hits from TREM2/TYROBP cell lines screened.
# To eliminate the false positive hits from the primary screen that might directly stimulate NFAT signaling, a counter screen was performed with the initial 27 compounds using the BW-NFAT-Luc cell line alone. […] The primary screen with the TREM2/TYROBP Luciferase reporter cell line identified Tyrphostin AG 538 as a positive hit with a relative luminescence of 16.08 (FIG. 6A). […]
# TREM2/TYROBP = target: T1, TREM2/TYROBP (Homo sapiens, UniProt Q9NZC2); experiment: TREM2/TYROBP/NFAT-Luc luciferase reporter cell line screen (primary screen); format: cell-based; conditions: for stimulation of reporter activity in the TREM2 screening cell line: TREM2/TYROBP/NFAT-Luc cells, positive controls: sphingomyelin at increasing concentrations or 120 μg/mL, PMA (1.5 ng/mL)/Ionomycin (375 nM)
# T1 construct: stably co-expressing full-length TREM2, full-length TYROBP, and a reporter (e.g., firefly luciferase) driven by NFAT-response elements; expressed in transfected cells; host or cells: BW5147.3 mouse T-lymphocyte cell line, lentiviral transduction (pTYF vectors)
# Description: as §1
# TREM2 and TYROBP geneArt double-stranded cDNA strings were synthesized (Life Technologies, Carlsbad, CA) and subcloned into pTYF lentiviral vectors to generate a pLenti expression clone. HEK293HT cells were next transfected using Superfect (Qiagen, Venlo, Netherlands), and viral particles were collected and concentrated. Stable expression of TREM2, TYROBP, and the Cignal Lenti NFAT Reporter (Luc) (Qiagen, Venlo, Netherlands) in BW5147.3 cells was accomplished by transduction in opti-MEM media (Life Technologies, Carlsbad, CA) containing 6 μg/ml Polybrene (Sigma-Aldrich, St. Louis, MO). […]
# TREM2/TYROBP-NFAT-Luc cell line for HTS was optimized by testing TREM2-stimulated Luc-reporting as a function of growth medium, agonist concentration, induction time, assay duration, and cell density. […] Firefly luciferase levels were measured by chemiluminescence (Bright-Glo™, Promega, WI). […] The effect of reported TREM2 agonists to be served as positive controls were measured (FIG. 5), and the specific stimulation of our reporter through TREM2 by known ligand sphingomyelin was confirmed (FIG. 5).
# The primary screening assay was conducted with a concentration of 5 μM for each of the 2,400 compounds (final 0.05% or 0.1% DMSO (v/v)) with two replicate screens with internal replicates. […] Subsequently, Luciferase activity was measured using Bright-Glo™ (Promega, Madison, WI).
# T1 sequence (Q9NZC2 19-230, species assumed): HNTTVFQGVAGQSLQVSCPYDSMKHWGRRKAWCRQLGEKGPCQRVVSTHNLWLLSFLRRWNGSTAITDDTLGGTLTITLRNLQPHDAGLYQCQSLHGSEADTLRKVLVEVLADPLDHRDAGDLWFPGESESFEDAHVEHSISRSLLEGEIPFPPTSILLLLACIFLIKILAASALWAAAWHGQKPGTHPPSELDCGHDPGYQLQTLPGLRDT
# T1 sequence (O43914 22-113 partner, species assumed): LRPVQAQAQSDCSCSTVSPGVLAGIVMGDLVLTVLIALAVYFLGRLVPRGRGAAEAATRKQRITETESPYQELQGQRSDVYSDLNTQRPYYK
"relative luminescence (TREM2/TYROBP; primary screen, 5 μM, duplicates, 8 h treatment, TREM2/TYROBP/NFAT-Luc reporter cell line, relative to DMSO vehicle)",stimulation of reporter activity in the TREM2 screening cell line (TREM2/TYROBP; listed as sphingomyelin),Compound,"direct stimulation of the NFAT reporter in the counter screen (NFAT reporter; NFAT-Luc reporter cell line, 1.5, 3, 6 and 12.5 μM)",stimulation of the NFAT-Luc reporter-only counter screen cell line (NFAT reporter),stimulation of the NFAT-Luc reporter-only counter screen cell line (NFAT reporter; listed as SM),stimulation of reporter activity in the TREM2 screening cell line (TREM2/TYROBP)
16.08,,N#C/C(=C\c1ccc(O)c(O)c1)C(=O)c1ccc(O)c(O)c1 [Tyrphostin AG 538],did not stimulate the NFAT reporter directly,,,
,induce reporter activity,Sphingomyelin,,did not show direct stimulation of the NFAT reporter,did not show any activity,stimulates; also recorded: similarly positive results

# Reference: patent publication US12653803B2, “TREM2 agonists for the stimulation of microglia and methods of identification” (THE TRANSLATIONAL GENOMICS RESEARCH INSTITUTE, priority 2017, dated 2026)
